# Read-outs that look alike come from different tables or passages of the source. *1 amine or outer side, *2 acyl side, *3 side chain or, on linkers, in order; H or OH if unused. Where a SMILES comes first, the peptide text is derived from it. Bridges are numbered along the chain shown (N, C = ends). [ ]: non-standard residue; d: D form. hPhe(3-Cl-4-CF3) = N[C@@H](CCc1ccc(C(F)(F)F)c(Cl)c1)C(=O)O; X4 = CCCN([C@@H](COCCC(C)C)C(=O)[*:2])[*:1]; NMeGly(cPent) = CN[C@H](C(=O)O)C1CCCC1; NMeD = CN[C@@H](CC(=O)O)C(=O)O; NMeL = CN[C@@H](CC(C)C)C(=O)O; NMeA = CN[C@@H](C)C(=O)O; Aze = O=C(O)[C@@H]1CCN1; Ac4c = NC1(C(=O)O)CCC1; Sar = CNCC(=O)O
# Key:
# [1] = tested on: human lung cancer strain NCI-H441; conditions: read-out: NCI-H441 IC50; NCI-H441 cells, 4 days, CellTiter-Glo
# [2] = biological target: GDP-bound HRAS wild-type protein (Homo sapiens, UniProt P01112); assay: Binding to HRAS by surface plasmon resonance (SPR), Single Cycle Kinetics; conditions: SPR
# GDP-bound HRAS wild-type protein, sequence (P01112 whole entry): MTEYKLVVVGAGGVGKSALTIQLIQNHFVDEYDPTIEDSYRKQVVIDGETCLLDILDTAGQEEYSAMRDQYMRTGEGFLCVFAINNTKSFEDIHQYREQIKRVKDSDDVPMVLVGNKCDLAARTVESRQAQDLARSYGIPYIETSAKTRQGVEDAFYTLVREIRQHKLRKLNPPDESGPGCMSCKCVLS
# [3] = biological target: GDP-bound KRAS wild-type protein (Homo sapiens, UniProt P01116); assay: Binding to KRAS by surface plasmon resonance (SPR), Single Cycle Kinetics
# [4] = biological target: GDP-bound NRAS wild-type protein (Homo sapiens, UniProt P01111); assay: Binding to NRAS by surface plasmon resonance (SPR), Single Cycle Kinetics; conditions: SPR
# GDP-bound NRAS wild-type protein, sequence (P01111 whole entry): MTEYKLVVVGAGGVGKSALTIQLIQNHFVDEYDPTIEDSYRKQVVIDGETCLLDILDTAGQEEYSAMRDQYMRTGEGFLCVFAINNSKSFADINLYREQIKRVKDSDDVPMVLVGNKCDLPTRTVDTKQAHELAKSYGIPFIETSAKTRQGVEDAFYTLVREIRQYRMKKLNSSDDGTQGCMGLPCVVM
# [5] = SPR, Single Cycle Kinetics, GDP-bound KRAS wild-type protein
# [6] = KD ratio, GDP-bound HRAS wild-type vs GDP-bound KRAS wild-type
# [7] = KD ratio, GDP-bound NRAS wild-type vs GDP-bound KRAS wild-type
# [8] = SPR Single Cycle Kinetics, GDP-bound KRAS wild-type protein, 1:1 binding model
smiles,measurement,setting,value
CCO[C@@H]1C[C@H]2C(=O)NC3(CCC3)C(=O)N(C)[C@@H](C3CCCC3)C(=O)N(C)[C@H](C(=O)N(C)C)CC(=O)N(C)[C@@H](COCC(F)(F)F)C(=O)N[C@@H]([C@@H](C)CC)C(=O)N(C)CC(=O)N(C)[C@H]3C/C=C\CCN(C3=O)[C@@H](Cc3ccc(C(F)(F)F)cc3)C(=O)N(C)CC(=O)N[C@@H](CCc3cc(F)c(C(F)(F)F)c(F)c3)C(=O)N2C1 [PP1267],IC50,[1],10.8 nM
same,HRAS/KRAS (ratio of KD value for GDP-bound HRAS wild-type protein to KD value for KRAS),[2]; KD ratio class,A (a compound having 10 or more and less than 20 is denoted as A)
same,Kd,[3]; [5],0.046 nM
same,NRAS/KRAS (ratio of KD value for GDP-bound NRAS wild-type protein to KD value for KRAS),[4]; KD ratio class,A (a compound having 10 or more and less than 20 is denoted as A)
CCCN1C(=O)CN(C)C(=O)CN(C)C(=O)[C@H]([C@@H](C)CC)NC(=O)[C@@H]2CCCCCCC[C@@H](NC(=O)[C@@H]3C[C@@H](OCC)CN3C(=O)[C@H](CCc3cc(F)c(C(F)(F)F)c(F)c3)NC(=O)CN(C)C(=O)[C@@H]1Cc1ccc(C(F)(F)F)cc1)C(=O)N(C)[C@@H](C1CCCC1)C(=O)N(C)[C@H](C(=O)N(C)C)CC(=O)N2C [PP0925],HRAS/KRAS (ratio of KD value with respect to HRAS to KD value with respect to KRAS),[2]; [6],B (a compound having 3 or more and less than 10 is denoted as B)
same,Kd,[3]; [5],1.1 nM
same,NRAS/KRAS (ratio of KD value with respect to NRAS to KD value with respect to KRAS),[4]; [7],A (a compound having 10 or more and less than 20 is denoted as A)
"CCC[C@H]1C(=O)N[C@@H]([C@@H](C)CC)C(=O)N(C2CC2)CC(=O)N(C)[C@H]2C/C=C\CCN(C2=O)[C@@H](Cc2ccc(C)cc2)C(=O)N(C)CC(=O)N[C@@H](CCc2cc(F)c(C(F)(F)F)c(F)c2)C(=O)N2C[C@H](OCC)C[C@H]2C(=O)N(C)C2(CCC2)C(=O)N(C)[C@@H](C2CCCC2)C(=O)N(C)[C@H](C(=O)N2CCCCC2)CC(=O)N1C [PP3111, (2S,8S,12R,14S,20S,23S,27S,30S,36S,38Z)-20-cyclopentyl-32-cyclopropyl-8-[2-[3,5-difluoro-4-(trifluoromethyl)phenyl]ethyl]-12-ethoxy-4,16,19,22,26,35-hexamethyl-30-[(1S)-1-methylpropyl]-23-(piperidine-1-carbonyl)-27-propyl-2-(p-tolylmethyl)spiro[1,4,7,10,16,19,22,26,29,32,35-undecazatricyclo[34.5.1.0^10,14]dotetracont-38-ene-17,1′-cyclobutane]-3,6,9,15,18,21,25,28,31,34,42-undecone]",HRAS/KRAS (ratio of KD value with respect to GDP-bound HRAS wild-type protein to KD value with respect to KRAS),"[2]; KD ratio HRAS/KRAS, GDP-bound wild-type proteins",A (a compound having 10 or more and less than 20 is denoted as A)
same,Kd,[3]; [8],4.8 nM
same,NRAS/KRAS (ratio of KD value with respect to GDP-bound NRAS wild-type protein to KD value with respect to KRAS),"[4]; KD ratio NRAS/KRAS, GDP-bound wild-type proteins",A (a compound having 10 or more and less than 20 is denoted as A)
CCCN1C(=O)CN(C)C(=O)CN(C)C(=O)[C@H]([C@@H](C)CC)NC(=O)[C@@H]2CCCCOc3ccc(cc3)C[C@H]1C(=O)N(C)CC(=O)N[C@@H](CCc1cc(F)c(C(F)(F)F)c(F)c1)C(=O)N1C[C@H](OCC)C[C@H]1C(=O)NC1(CCCC1)C(=O)N(C)[C@@H](C1CCCC1)C(=O)N(C)[C@H](C(=O)N(C)C)CC(=O)N2C [PP0894],HRAS/KRAS (ratio of KD value with respect to HRAS to KD value with respect to KRAS),[2]; [6],C (A compound having a KD ratio of 0.1 or more and less than 3 is denoted as C)
same,Kd,[3]; [5],0.0088 nM
same,NRAS/KRAS (ratio of KD value with respect to NRAS to KD value with respect to KRAS),[4]; [7],C (A compound having a KD ratio of 0.1 or more and less than 3 is denoted as C)
"CCCN1C(=O)[C@@H]2CCN2C(=O)[C@H](C)N(C)C(=O)[C@H]([C@@H](C)CC)NC(=O)[C@H](CC(C)C)N(C)C(=O)C[C@@H](C(=O)N(C)C)N(C)C(=O)[C@H](C2CCCC2)N(C)C(=O)C2(CCC2)NC(=O)[C@@H]2CCCN2C(=O)[C@H](CCc2ccc(C(F)(F)F)c(Cl)c2)NC(=O)CN(C)C(=O)[C@@H]1COCCC(C)C [PP1820, (3S,9S,12S,17S,20S,23S,27S,30S,36S)-3-[2-[3-chloro-4-(trifluoromethyl)phenyl]ethyl]30-cyclopentyl-23-isobutyl-9-(isopentyloxymethyl)-N,N,7,17,18,24,28,31-octamethyl-20-[(1S)-1-methylpropyl]-2,5,8,11,16,19,22,25,29,32,35-undecaoxo-10-propyl-spiro[1,4,7,10,15,18,21,24,28,31,34-undecazatricyclo[34.3.0.012,15]nonatriacontane-33,1′-cyclobutane]-27-carboxamide] ([NMeL]I[NMeA][Aze][X4][Sar][hPhe(3-Cl-4-CF3)]P[Ac4c][NMeGly(cPent)][NMeD]-NMe2; lactam N-11)",HRAS/KRAS (ratio of KD value for HRAS to KD value for KRAS),[2]; [6],C (A compound having a KD ratio of 0.1 or more and less than 3 is denoted as C)
same,Kd,[3]; [8],0.6 nM
same,NRAS/KRAS (ratio of KD value for NRAS to KD value for KRAS),[4]; [7],C (A compound having a KD ratio of 0.1 or more and less than 3 is denoted as C)
CCO[C@@H]1C[C@H]2C(=O)NC3(CCC3)C(=O)N(C)[C@@H](C3CCCC3)C(=O)N(C)[C@H](C(=O)N3CCOCC3)CC(=O)N(C)[C@@H](Cc3ccccc3)C(=O)N[C@@H]([C@@H](C)CC)C(=O)N(C)CC(=O)N(C)[C@H]3CCCCCN(C3=O)[C@@H](Cc3ccc(F)cc3)C(=O)N(C)CC(=O)N[C@@H](CCc3cc(F)c(C(F)(F)F)c(F)c3)C(=O)N2C1 [PP1181],HRAS/KRAS (ratio of KD value with respect to HRAS to KD value with respect to KRAS),[2]; [6],B (a compound having 3 or more and less than 10 is denoted as B)
same,Kd,[3]; [5],0.19 nM
same,NRAS/KRAS (ratio of KD value with respect to NRAS to KD value with respect to KRAS),[4]; [7],B (a compound having 3 or more and less than 10 is denoted as B)
CCO[C@@H]1C[C@H]2C(=O)NC3(CCC3)C(=O)N(C)[C@@H](C3CCCC3)C(=O)N(C)[C@H](C(=O)N(C)C)CC(=O)N(C)[C@@H](CC3CCCC3)C(=O)N[C@@H]([C@@H](C)CC)C(=O)N(C)CC(=O)N(C)[C@H]3C/C=C\CCN(C3=O)[C@@H](Cc3ccc(C(F)(F)F)cc3)C(=O)N(C)CC(=O)N[C@@H](CCc3ccc(C(F)(F)F)c(OC)c3)C(=O)N2C1 [PP1248],IC50,[1],7.3 nM
same,Kd,[3],0.069 nM
